Experimental data reported in patent US20150141414A1, “Formulation of Stable Recombinant Alpha-Fetoprotein Conjugated with Anti-Tumor Substance in Target-Delivery System for Treatment of Cancer and Autoimmune Disease” (priority 2013, published 2015).
Where two headings read alike, the source gives them in different places. Starred links: 1 amine or outer side, 2 acyl side, 3 side chain; linkers in the order of their positions; H or OH if unused. Positions of bridges follow the written chain, without caps; N, C: chain ends. Non-standard residues stand in square brackets, D forms with d. Residues, ends and D or L forms follow the SMILES beside them. Chains are numbered I, II in the order given. Actinocin(9to1) = Cc1c2oc3c(C)ccc(C(=O)[*:1])c3nc-2c(C(=O)[*:2])c(N)c1=O; NMeV = CN[C@H](C(=O)O)C(C)C; Sar = CNCC(=O)O

Experiments:
mouse = conditions: cited from earlier work
cat = conditions: cited from earlier work
[1] = test system: Hela cervical cancer cells; test: MTT cytotoxicity assay, Hela cervical cancer cells; type: cell-based; conditions: Homo sapiens, mean of three determinations, read-out: 50% growth inhibition concentration (1050)
Description: The cytotoxicity of dactinomycin incorporated in PLGA conjugated with rAFP was tested with Hela cervical cancer cells. It is recognized that the use of PLGA as the controlled release polymer system is particularly suitable for the intent of the present invention because PLGA is well known for its safety in clinic. The Hela cells were doused with both dactinomycin in bulk. MTT assay was then performed to quantify the inhibitory concentration. […] 1050 was calculated from the cell viability data as the drug concentration in which cell growth was inhibited by 50%.

[2] = test system: lymphocyte of an average healthy person; test: Dose-dependent survival of lymphocytes of a healthy person; type: cell-based; conditions: Homo sapiens, read-out: 50% growth inhibition concentration
Text: Each value depicted in FIGS. 1A and 1B is the mean of three determinations with coefficient of variation less than 20%.

rat = conditions: cited from earlier work
pigeon = conditions: intravenous injection; cited from earlier work
frog = conditions: intravenous injection; cited from earlier work

Question: Which LD50 intravenous (mouse; mouse, intravenous) does the source give for `C[C@]12CC[C@H](O)C[C@H]1CC[C@@H]1[C@@H]2CC[C@]2(C)[C@@H](c3ccc(=O)oc3)CC[C@]12O` [bufalin] here?
Answer: 0.74 mg/kg

Question: And the LD50 intravenous (cat)?
Answer: 0.14 mg/kg

Question: For `Cc1c2oc3c(C)ccc(C(=O)N[C@@H]4C(=O)N[C@H](C(C)C)C(=O)N5CCC[C@H]5C(=O)N(C)CC(=O)N(C)[C@@H](C(C)C)C(=O)O[C@@H]4C)c3nc-2c(C(=O)N[C@@H]2C(=O)N[C@H](C(C)C)C(=O)N3CCC[C@H]3C(=O)N(C)CC(=O)N(C)[C@@H](C(C)C)C(=O)O[C@@H]2C)c(N)c1=O` [dactinomycin in bulk, Dactinomycin] (I: T[dV]P[Sar][NMeV] / II: T[dV]P[Sar][NMeV]; ester I:1-I:C, II:1-II:C; linker I:N-II:N via Actinocin(9to1)), which IC50 [1] is on record?
Answer: 1.7 nM

Question: And the IC50 [2]?
Answer: 23.8 nM

Question: What about the “lethal dose as multiple of maximum recommended daily human dose (body surface area basis)” value (mouse; mice, intravenous 700 mcg/kg) of the same compound?
Answer: 3.8 times

Question: What about the lethal intravenous dose (mouse; mice, intravenous) of the same compound?
Answer: 0.7 mg/kg

Question: What about the “oral LD50” value (mouse; mouse, oral) of the same compound?
Answer: 7.8 mg/kg

Question: And the “oral LD50” value (rat; rat, oral)?
Answer: 7.2 mg/kg

Question: What about the “lethal dose as multiple of maximum recommended daily human dose (body surface area basis)” value (rat; rats, intravenous 500 mcg/kg) of the same compound?
Answer: 5.4 times

Question: What about the lethal intravenous dose (rat; rats, intravenous) of the same compound?
Answer: 0.5 mg/kg

Question: With `C[C@H]1O[C@@H](O[C@H]2[C@@H](O)C[C@H](O[C@H]3[C@@H](O)C[C@H](O[C@H]4CC[C@@]5(C)[C@H](CC[C@@H]6[C@@H]5CC[C@]5(C)[C@@H](C7=CC(=O)OC7)CC[C@]65O)C4)O[C@@H]3C)O[C@@H]2C)C[C@H](O)[C@@H]1O` [digitoxin] as the compound, how does the LD50 intravenous (pigeon) read?
Answer: 0.32 mg/kg

Question: What about the LD50 intravenous (frog) of the same compound?
Answer: 0.73 mg/kg

Question: What about the LD50 intravenous (mouse; mouse, intravenous injection) of the same compound?
Answer: 4.1 mg/kg

Question: For `CN(Cc1cnc2nc(N)nc(N)c2n1)c1ccc(C(=O)N[C@@H](CCC(=O)O)C(=O)O)cc1` [methotrexate], which LD50 intravenous (rat; rats, intravenous) is on record?
Answer: 14 mg/kg body weight

Question: Which LD50 intravenous (rat; rats, intravenous) does the source give for `COc1cc2c(Nc3ccc(Br)cc3F)ncnc2cc1OCC1CCN(C)CC1` [vandetanib] here?
Answer: 17-41 mg/kg body weight
